According to publication PMC5423611, “An activity-integrated strategy of the identification, screening and determination of potential neuraminidase inhibitors from Radix Scutellariae” (PLoS ONE, 2017):
≈ marks a conversion by molar mass, not a printed value.

Each molecule was assayed against T1, neuraminidase (NA), neuraminidase inhibitors screen kit. Settings: not given.
T1 construct: enzyme of a commercial Beyotime screening kit
Format: biochemical

Compound	IC50
O=C(O)[C@H]1O[C@@H](Oc2cc3oc(-c4ccc(O)cc4)cc(=O)c3c(O)c2O)[C@H](O)[C@@H](O)[C@@H]1O [compound 5, scutellarin]	321.8 ± 62.8 µg/mL (≈ 696 µM)

Same assay, conditions: 2'-(4-methylumbelliferyl)-alpha-D-N-acetylneuraminic acid substrate; 37 °C; 30 min

Compound	IC50
O=C(O)[C@H]1O[C@@H](Oc2cc3oc(-c4ccccc4)cc(=O)c3c(O)c2O)[C@H](O)[C@@H](O)[C@@H]1O [compound 11, baicalin]	267.3 ± 37.8 µg/mL (≈ 599 µM)
O=c1cc(-c2ccccc2)oc2cc(O)c(O)c(O)c12 [compound 22, baicalein]	397.7 ± 9.91 µg/mL (≈ 1470 µM)
O=c1cc(-c2ccc(O)cc2)oc2cc(O)c(O)c(O)c12 [compound 10, scutellarein]	664.5 ± 26.2 µg/mL (≈ 2320 µM)
COc1c(O[C@@H]2O[C@H](C(=O)O)[C@@H](O)[C@H](O)[C@H]2O)cc(O)c2c(=O)cc(-c3ccccc3)oc12 [compound 19, wogonoside]	428.3 ± 18.9 µg/mL (≈ 930 µM)
COc1c(O)cc2oc(-c3ccccc3)cc(=O)c2c1O [compound 25, oroxylin A]	> 1000 µg/mL
O=C(O)[C@H]1O[C@@H](Oc2cc(O)c3c(=O)cc(-c4ccccc4)oc3c2)[C@H](O)[C@@H](O)[C@@H]1O [compound 15, chrysin-7-O-glucuronide]	493.6 ± 64.2 µg/mL (≈ 1150 µM)
COc1c(O)cc(O)c2c(=O)cc(-c3ccccc3)oc12 [compound 23, wogonin]	331.1 ± 49.4 µg/mL (≈ 1160 µM)
O=c1cc(-c2ccccc2)oc2cc(O)cc(O)c12 [compound 24, chrysin]	402.80 ± 67.8 µg/mL (≈ 1580 µM)
